Patent US20100227923A1, “PREVENTIVE/REMEDY FOR URINARY CALCULOSIS” (GODO SHUSEI CO., LTD., priority 2006, published 2010)
Like-named read-outs stand apart in the source and are kept apart here.

Key:
[1] = Non-Patent Documents 4 to 6; cited from earlier work
[2] = Non-Patent Documents 4 to 6; cited from earlier work; remark: listed apart in the source
mice = experiment: Single-dose peroral safety experiment of mice (LD50); format: in vivo
[3] = Percent urine excretion (24 hours) of rats after intravenous administration; format: in vivo, Wistar rats; conditions: for Percent urine excretion (24 hours): rats, 0.5 mmol/kg i.v., av. ± standard error
Method: (§1) The percent urine excretion (24 hours) was determined in the following manner. To each of the 5- to 6-week-old male Wistar rats which had been fasted overnight, sodium L-arabonate (0.5 mmol/kg) was administered through the tail vein. The rats were placed in a metabolic cage where urine was collected for 24 hours. After removal of protein from the blood samples and urine samples, the blood L-arabonic acid level of each sample was determined through HPLC. Instead of L-arabonic acid, sodium D-gluconate was administered to the rats of the control group. The blood sodium D-gluconate level was determined by means of an F-kit (product of Roche Diagnostic).

[4] = Blood level of rats after intravenous administration; format: in vivo, Wistar rats
Method: After fasting overnight, 10- to 11-week old Wistar male rats were anesthetized with Nembutal, and sodium L-arabonate (0.5 mmol/kg) was administered through the femoral vein of each rat. Blood was sampled through the carotid artery as time elapsed, whereby the L-arabonic acid level was determined. Blood collection was performed by means of a heparin-treated capillary before administration and 5 min, 15 min, 30 min, and 1 hour after administration.
as §1

In the case of `O=C(O)[C@H](O)[C@@H](O)[C@H](O)[C@H](O)CO` [D-gluconic acid], the “Dissolving of calcium phosphate calculi and magnesium phosphate calculi” value [1] is listed as “dissolve” and the “Dissolving of calcium oxalate calculi” value [2] is listed as “not to dissolve”.

For `O=C(O)[C@H](O)[C@@H](O)[C@@H](O)CO` [L-Arabonic acid, L-arabonic acid], the LD50 (mice) was “about 10 g/kg”, the “Metabolism in the body” value ([3]; rat, in vivo) was “not metabolized in the body and is immediately excreted to urine” and the “Portion of the absorbed L-arabonic acid excreted to urine” value ([3]; rat, in vivo) was roughly 100%.

With `O=C([O-])[C@H](O)[C@@H](O)[C@H](O)[C@H](O)CO.[Na+]` [Sodium D-gluconate, sodium D-gluconate] the “Blood D-gluconic acid level” value ([4]; rats, 0.5 mmol/kg i.v.) was “considerably low”, the “Metabolism in the body” value [3] was “a large portion thereof is thought to be metabolized and consumed in the body” and the “Percent urine excretion (24 hours)” value [3] was 9.8 ± 9.76%. For the same molecule, the “Percent urine excretion (24 hours)” value ([3]; listed as sodium D-gluconate) was “about 10%”.

In the case of `O=C([O-])[C@H](O)[C@@H](O)[C@@H](O)CO.[Na+]` [Sodium L-arabonate, sodium L-arabonate], the “Time at which blood level decreased to about the half value” ([4]; rat, in vivo, iv) is reported as 22 min.
